Structures can show the parent of a compound that is named as a salt.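 Five compound concentrations were applied to cells in 96-well plates for 48 hours; endpoints were derived by simple linear interpolation of the resulting dose-response curve. GI50 marks 50% less growth.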 The source made the active and inactive calls. No stated cut-off is given here; in the data, active = GI50 up to about 1.1 µM and inactive = higher.
What was measured:
Assay in all cases: DTP human tumour cell line panel, 48 h
IGROV-1 = tested on: IGROV-1
M14 = tested on: M14
HOP-62 = tested on: HOP-62
SW-620 = tested on: SW-620
UO-31 = tested on: UO-31
RXF 393 = tested on: RXF 393
NCI/ADR-RES = tested on: NCI/ADR-RES
MDA-MB-435 = tested on: MDA-MB-435
NCI-H460 = tested on: NCI-H460
ACHN = tested on: ACHN
SF-295 = tested on: SF-295
K562 = tested on: K562
HCT-15 = tested on: HCT-15
LOX IMVI = tested on: LOX IMVI
U-251 = tested on: U-251
OVCAR-5 = tested on: OVCAR-5
NCI-H522 = tested on: NCI-H522
BT-549 = tested on: BT-549
Hs-578T = tested on: Hs-578T

Row | SMILES | GI50 (IGROV-1) | GI50 (M14) | GI50 (HOP-62) | GI50 (SW-620) | GI50 (UO-31) | GI50 (RXF 393) | GI50 (NCI/ADR-RES) | GI50 (MDA-MB-435) | GI50 (NCI-H460) | GI50 (ACHN) | GI50 (SF-295) | GI50 (K562) | GI50 (HCT-15) [µM] | GI50 (LOX IMVI) | GI50 (U-251) | GI50 (OVCAR-5) | GI50 (NCI-H522) | GI50 (BT-549) | GI50 (Hs-578T)
1 | CN(C)CCOC(=O)COc1ccc(Cl)cc1 [CENTROPHENOXINE HYDROCHLORIDE] | > 100 µM (inactive) | > 100 µM (inactive) | > 100 µM (inactive) | > 100 µM (inactive) | > 100 µM (inactive) | > 100 µM (inactive) | > 100 µM (inactive) | > 100 µM (inactive) | > 100 µM (inactive) | > 100 µM (inactive) | > 100 µM (inactive) | > 100 µM (inactive) | > 100 | > 100 µM (inactive) | > 100 µM (inactive) | > 100 µM (inactive) | > 100 µM (inactive) |  | 
2 | CCN(CC)CCC(=O)NC1c2ccc(Cl)cc2Oc2c(C)cccc21 (configuration not stated) | 13 µM (inactive) | 17.5 µM (inactive) | > 10 µM (inactive) | 16.7 µM (inactive) | 8.89 µM (inactive) |  | 16.8 µM (inactive) | 15.1 µM (inactive) | 16.6 µM (inactive) |  | 18.6 µM (inactive) | 18.5 µM (inactive) | 18.7 | 14.5 µM (inactive) | > 10 µM (inactive) | 15.6 µM (inactive) | 17.1 µM (inactive) | 13.9 µM (inactive) | 
3 | CCOC(=O)[C@@H]1ON2O[C@@H](OC3CCCCC3c3ccccc3)C[C@H]3OC(=O)[C@@H]1C32 (some centres not stated) | > 100 µM (inactive) | > 100 µM (inactive) | > 100 µM (inactive) | > 100 µM (inactive) | > 100 µM (inactive) | > 100 µM (inactive) | > 100 µM (inactive) | 91.2 µM (inactive) | 38.1 µM (inactive) | > 100 µM (inactive) | > 100 µM (inactive) | > 100 µM (inactive) | > 100 | > 100 µM (inactive) | > 100 µM (inactive) | > 100 µM (inactive) | 87.1 µM (inactive) |  | > 100 µM (inactive)
4 | Cc1[nH]c2ccccc2c1CC/C(=N\Nc1ccccc1)c1ccccc1 | > 100 µM (inactive) | > 100 µM (inactive) | > 100 µM (inactive) | > 100 µM (inactive) | > 100 µM (inactive) | > 100 µM (inactive) |  |  | > 100 µM (inactive) | > 100 µM (inactive) | 94.6 µM (inactive) | > 100 µM (inactive) | > 100 |  | > 100 µM (inactive) | > 100 µM (inactive) |  |  | 
5 | CCOC(=O)/C(=C/c1ccc(OC)c(OC)c1)C(=O)c1ccccc1 | 20.2 µM (inactive) | 13.9 µM (inactive) | 19.5 µM (inactive) | 19.4 µM (inactive) | 14.4 µM (inactive) |  |  |  | 33.3 µM (inactive) | 27.9 µM (inactive) | 21.2 µM (inactive) | 10.3 µM (inactive) | 15.1 |  | 19.5 µM (inactive) | 17.5 µM (inactive) | 13.9 µM (inactive) |  | 
6 | CCN(CC)C(=O)c1cc([N+](=O)[O-])c(=O)n2c1[nH]c1ccccc12 | > 100 µM (inactive) | > 100 µM (inactive) | > 100 µM (inactive) | > 100 µM (inactive) | > 100 µM (inactive) | > 100 µM (inactive) | > 100 µM (inactive) | > 100 µM (inactive) | > 100 µM (inactive) | > 100 µM (inactive) | > 100 µM (inactive) | > 100 µM (inactive) |  | > 100 µM (inactive) |  | > 100 µM (inactive) | > 100 µM (inactive) |  | > 100 µM (inactive)
7 | CN1CCN(c2cc3c(cc2F)c(=O)c(C(=O)O)cn3C2CC2)CC1CC#N (configuration not stated) | > 100 µM (inactive) |  | > 100 µM (inactive) | > 100 µM (inactive) | > 100 µM (inactive) | > 100 µM (inactive) | > 100 µM (inactive) | > 100 µM (inactive) | > 100 µM (inactive) | > 100 µM (inactive) | > 100 µM (inactive) | > 100 µM (inactive) | > 100 | > 100 µM (inactive) | > 100 µM (inactive) | > 100 µM (inactive) |  | > 100 µM (inactive) | 
8 | C=CCNC(=S)N1c2ccccc2NC(=O)CC1C (configuration not stated) | > 100 µM (inactive) | > 100 µM (inactive) | > 100 µM (inactive) | > 100 µM (inactive) | > 100 µM (inactive) | > 100 µM (inactive) |  |  | > 100 µM (inactive) | > 100 µM (inactive) | > 100 µM (inactive) | > 100 µM (inactive) | > 100 | > 100 µM (inactive) | > 100 µM (inactive) | > 100 µM (inactive) | > 100 µM (inactive) |  | 
9 | C/N=C(\SC)N(C)c1nc(=[N+](C)C)ss1.[O-][Cl+3]([O-])([O-])[O-] | > 100 µM (inactive) | > 100 µM (inactive) | > 100 µM (inactive) | 31.6 µM (inactive) | 42.2 µM (inactive) | > 100 µM (inactive) |  |  |  | > 100 µM (inactive) | > 100 µM (inactive) | 10.7 µM (inactive) | > 100 | > 100 µM (inactive) | > 100 µM (inactive) | > 100 µM (inactive) | 13.2 µM (inactive) |  | 
10 | COc1cccc2nc3ccccc3nc12 |  | > 100 µM (inactive) | > 100 µM (inactive) | 45.8 µM (inactive) | 36 µM (inactive) | 39.3 µM (inactive) | > 100 µM (inactive) | > 100 µM (inactive) | 39.8 µM (inactive) | 25.3 µM (inactive) | 80 µM (inactive) | 80.2 µM (inactive) | 39.1 | 38.8 µM (inactive) | 55.5 µM (inactive) | > 100 µM (inactive) |  |  | > 100 µM (inactive)
11 | N=C(N)N/N=C(/CCN1CCCC1)CC(c1ccccc1)c1c(O)c2ccccc2oc1=O (configuration not stated) | > 100 µM (inactive) | > 100 µM (inactive) | > 100 µM (inactive) | > 100 µM (inactive) |  | > 100 µM (inactive) |  |  |  | > 100 µM (inactive) | > 100 µM (inactive) | > 100 µM (inactive) |  | > 100 µM (inactive) |  |  | > 100 µM (inactive) |  | 
12 | Cc1cc(C)c(N[S+]([O-])c2cccc(C(F)(F)F)c2)c(C)c1 (configuration not stated) |  | > 100 µM (inactive) | > 100 µM (inactive) | > 100 µM (inactive) | > 100 µM (inactive) | > 100 µM (inactive) | > 100 µM (inactive) | > 100 µM (inactive) | > 100 µM (inactive) | > 100 µM (inactive) | > 100 µM (inactive) | > 100 µM (inactive) | > 100 |  | > 100 µM (inactive) | > 100 µM (inactive) |  | > 100 µM (inactive) | 
13 | Cc1cc(OCc2nn(CN3CCN(C)CC3)c(=S)n2/N=C/c2ccc(-c3ccc(Cl)cc3Cl)o2)ccc1Cl | > 100 µM (inactive) | 33.7 µM (inactive) | 39.3 µM (inactive) | 15.7 µM (inactive) | 57.1 µM (inactive) | 17.2 µM (inactive) | 38 µM (inactive) | 29.5 µM (inactive) | 67.8 µM (inactive) | > 100 µM (inactive) | 84.1 µM (inactive) | 34.6 µM (inactive) | 28.5 | 80.7 µM (inactive) | > 100 µM (inactive) | > 100 µM (inactive) | 24.5 µM (inactive) |  | 39.6 µM (inactive)
14 | Cc1ccc(NC(=O)SCCC(=O)O)cc1NC(=O)SCCC(=O)O | > 100 µM (inactive) | > 100 µM (inactive) | > 100 µM (inactive) | > 100 µM (inactive) | > 100 µM (inactive) | > 100 µM (inactive) |  |  | > 100 µM (inactive) | > 100 µM (inactive) | > 100 µM (inactive) | > 100 µM (inactive) | > 100 | > 100 µM (inactive) | > 100 µM (inactive) | > 100 µM (inactive) | > 100 µM (inactive) |  | 
15 | OC(c1cc(C(O)(C(F)(F)F)C(F)(F)F)ncn1)(C(F)(F)F)C(F)(F)F | > 10 µM (inactive) | > 10 µM (inactive) | > 10 µM (inactive) | > 10 µM (inactive) | > 10 µM (inactive) | > 10 µM (inactive) | > 10 µM (inactive) | > 10 µM (inactive) | > 10 µM (inactive) | > 10 µM (inactive) | > 10 µM (inactive) | > 10 µM (inactive) | > 10 | > 10 µM (inactive) | > 10 µM (inactive) |  | > 10 µM (inactive) |  | > 10 µM (inactive)
16 | C#CCOCC12C=CC(O1)C1C(=O)N(C)C(=O)C12 (configuration not stated) | > 100 µM (inactive) | > 100 µM (inactive) | > 100 µM (inactive) | > 100 µM (inactive) | > 100 µM (inactive) | > 100 µM (inactive) | > 100 µM (inactive) | > 100 µM (inactive) | > 100 µM (inactive) | > 100 µM (inactive) | > 100 µM (inactive) |  | > 100 | > 100 µM (inactive) | > 100 µM (inactive) | > 100 µM (inactive) |  | > 100 µM (inactive) | 
17 | Cc1[nH]n(-c2nc(-c3ccccc3)cc(=O)[nH]2)c(=O)c1CCO | > 100 µM (inactive) | > 100 µM (inactive) | > 100 µM (inactive) | > 100 µM (inactive) | > 100 µM (inactive) | > 100 µM (inactive) | 71.1 µM (inactive) | > 100 µM (inactive) | > 100 µM (inactive) | > 100 µM (inactive) | > 100 µM (inactive) | > 100 µM (inactive) | > 100 | > 100 µM (inactive) | > 100 µM (inactive) | > 100 µM (inactive) |  |  | > 100 µM (inactive)
18 | CCNC(=O)O/N=C1/C=C2CC[C@@H]3C(CC[C@@]4(C)C3CC[C@@H]4OC(=O)NCC)[C@@]2(C)CC1 (some centres not stated) | 7.5 µM (inactive) | 2.96 µM (inactive) | 11.4 µM (inactive) | 3.02 µM (inactive) | 1.78 µM (inactive) | 1.62 µM (inactive) |  |  | 3.46 µM (inactive) | 2.75 µM (inactive) | 2.41 µM (inactive) | 2.87 µM (inactive) | 2.77 | 3.32 µM (inactive) | 2.42 µM (inactive) | 6.78 µM (inactive) | 1.95 µM (inactive) |  | 
